Key:
[1] = system: HK2 kidney cells; experiment: MTT assay, cell viability; assay type: cell-based, human; details: 72 h incubation
Experimental: The MTT assay was used to assess cell viability (72 h incubation) in a human kidney (HK2) cell line. Cells were seeded into sterile 96-well microtitre plates (1×10^5 cells/mL) in 0.1 mL/well of media (DMEM) containing FCS (10% v/v). They were allowed to adhere for 24 h. The medium was then removed and test compounds (0.2 μm filter-sterilized) were added to the cells. To study the effect of colistin, CMS, dextrin-colistin conjugate and succinoylated dextrin (8,000 g/mol, 1.1 mol % succinoylation) on cell viability, complete media (+FCS) was supplemented with a range of concentrations of each. To study the effect of ‘unmasked’ dextrin-colistin on cell viability, complete media (+FCS) was supplemented with a range of concentrations of conjugate and amylase (100 IU/L). After a further 67 h incubation, MTT (20 μL of a 5 mg/mL solution in PBS) was added to each well and the cells were incubated for a further 5 h. The medium was then removed and the precipitated formazan crystals solubilized by addition of optical grade DMSO (100 μL) over 30 min. Absorbance was measured at 540 nm using a microtitre plate reader. Cell viability was expressed as a percentage of the viability of untreated control cells. The IC50 values were expressed as mean±SEM (n=18).

[2] = system: Pseudomonas aeruginosa mucoid strain; experiment: MIC broth microdilution (first mucoid strain, Table 3 r46); assay type: cell-based; details: amylase (100 IU/L) pre-incubation time 0
Experimental: (§1) Antimicrobial activity was measured using broth microdilution in a minimum inhibitory concentration (MIC) assay according to the Clinical and Laboratory Standards Institute (formerly NCCLS; 2003, Methods for Dilution Antimicrobial Susceptibility Tests for Bacteria That Grow Aerobically, Approved Standard—Sixth Edition. M7A6. Clinical and Laboratory Standards Institute. Wayne, Pa.). Test organisms were suspended in Mueller Hinton cation adjusted broth (100 μL, 1-5×10^4 CFU/mL) and incubated in 96-well microtitre plates in serial two-fold dilutions of the test compounds.
(§2) The antimicrobial activity of dextrin-colistin was also determined following incubation of the conjugate with amylase. Dextrin-colistin conjugates (3 mg/mL colistin eq.) were first incubated with amylase (100 IU/L for up to 48 h at 37° C. in PBS buffer (pH 8.2)).

[3] = system: Pseudomonas aeruginosa MDR 301 PSA; experiment: MIC broth microdilution; assay type: cell-based; details: amylase (100 IU/L) pre-incubation time 0
Experimental: as §1, §2

[4] = system: Klebsiella pneumoniae K3; experiment: MIC broth microdilution; assay type: cell-based; details: amylase (100 IU/L) pre-incubation time 0
Experimental: as §1, §2

[5] = system: Pseudomonas aeruginosa R22 PSA; experiment: MIC broth microdilution; assay type: cell-based; details: amylase (100 IU/L) pre-incubation time 0
Experimental: as §1, §2

[6] = system: Escherichia coli 7273; experiment: MIC broth microdilution; assay type: cell-based; details: amylase (100 IU/L) pre-incubation time 0
Experimental: as §1, §2

[7] = system: Escherichia coli AIM-1; experiment: MIC broth microdilution; assay type: cell-based; details: amylase (100 IU/L) pre-incubation time 0
Experimental: as §1, §2

[8] = system: Acinetobacter baumannii 7789; experiment: MIC broth microdilution; assay type: cell-based; details: amylase (100 IU/L) pre-incubation time 0
Experimental: as §1, §2

[9] = system: Acinetobacter lwoffi; experiment: MIC broth microdilution; assay type: cell-based; details: amylase (100 IU/L) pre-incubation time 0
Experimental: as §1, §2

[10] = system: Pseudomonas aeruginosa PA01; experiment: MIC broth microdilution; assay type: cell-based; details: amylase (100 IU/L) pre-incubation time 0
Experimental: as §1, §2

[11] = system: Klebsiella pneumoniae 5725; experiment: MIC broth microdilution; assay type: cell-based; details: amylase (100 IU/L) pre-incubation time 0
Experimental: as §1, §2

[12] = system: Escherichia coli 5702; experiment: MIC broth microdilution; assay type: cell-based; details: amylase (100 IU/L) pre-incubation time 0
Experimental: as §1, §2

[13] = system: Klebsiella pneumoniae KP05 506; experiment: MIC broth microdilution; assay type: cell-based; details: amylase (100 IU/L) pre-incubation time 0
Experimental: as §1, §2

[14] = system: Acinetobacter lwoffi 6056; experiment: MIC broth microdilution; assay type: cell-based; details: amylase (100 IU/L) pre-incubation time 0
Experimental: as §1, §2

[15] = system: Klebsiella pneumoniae IR25; experiment: MIC broth microdilution; assay type: cell-based; details: amylase (100 IU/L) pre-incubation time 0
Experimental: as §1, §2

[16] = system: Acinetobacter baumannii; experiment: MIC broth microdilution; assay type: cell-based; details: amylase (100 IU/L) pre-incubation time 0
Experimental: as §1, §2

[17] = system: Acinetobacter baumannii MDR ACB; experiment: MIC broth microdilution; assay type: cell-based; details: amylase (100 IU/L) pre-incubation time 0
Experimental: as §1, §2

[18] = system: Providencia stuartii IR57; experiment: MIC broth microdilution; assay type: cell-based; details: amylase (100 IU/L) pre-incubation time 0
Experimental: as §1, §2

[19] = system: Acinetobacter haemolyticus 1554; experiment: MIC broth microdilution; assay type: cell-based; details: amylase (100 IU/L) pre-incubation time 0
Experimental: as §1, §2

[20] = molecular target: T1, human amylase (Homo sapiens, UniProt P0DUB6); experiment: Release of colistin from dextrin-colistin conjugates by amylase (FPLC); assay type: in vitro ADME; details: amylase 100 IU/L in PBS, 37° C., CMS: hydrolysis in PBS
T1 construct: α-amylase from human saliva; purchased Sigma-Aldrich (Poole, UK); host or cells: human saliva (natural source)
T1 sequence (P0DUB6 16-511): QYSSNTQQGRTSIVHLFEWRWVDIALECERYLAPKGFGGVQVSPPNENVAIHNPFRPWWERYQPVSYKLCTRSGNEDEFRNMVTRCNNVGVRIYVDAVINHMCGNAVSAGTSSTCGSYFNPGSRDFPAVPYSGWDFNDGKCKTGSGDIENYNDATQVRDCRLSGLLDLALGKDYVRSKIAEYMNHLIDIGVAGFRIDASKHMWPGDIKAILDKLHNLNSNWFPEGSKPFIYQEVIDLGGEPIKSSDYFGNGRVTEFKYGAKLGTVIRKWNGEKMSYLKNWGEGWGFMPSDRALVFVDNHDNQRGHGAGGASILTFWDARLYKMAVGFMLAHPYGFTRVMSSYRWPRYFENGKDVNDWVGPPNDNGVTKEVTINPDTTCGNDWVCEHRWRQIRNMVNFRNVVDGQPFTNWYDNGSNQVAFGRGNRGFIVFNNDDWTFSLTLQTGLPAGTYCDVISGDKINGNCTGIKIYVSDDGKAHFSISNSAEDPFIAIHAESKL
Experimental: To compare the rate of amylase degradation of dextrin, succinoylated dextrin and dextrin-colistin conjugates, solutions (3 mg/mL in PBS, pH 7.4) of each sample was prepared containing amylase (100 IU/L in PBS) and incubated at 37° C. for up to 48 h. At various time points, samples (300 μL) were taken, immediately snap frozen in liquid nitrogen to stop the reaction and then stored at −20° C. until analysis by GPC and FPLC (conjugates only). Prior to analysis, samples were placed in a water bath (100° C.) for 5 min to denature the enzyme activity of the amylase and stop polymer degradation. The supernatant was then analysed by GPC to determine the change in molecular weight over time and by FPLC to determine the change in free colistin over time.

[21] = system: LPS from E. coli; experiment: LAL assay (endotoxin neutralisation); assay type: biochemical; details: 4 μg/mL
Experimental: A colorimetric assay technique was used in which the clotting reaction of Limulus amoebocyte lysate (LAL) in the presence of LPS was measured spectrophotometrically at 540 nm.
LPS was dissolved in pyrogen free water (0-50 ng/mL) containing colistin, CMS, dextrin-colistin or unmasked dextrin-colistin (4 μg/mL, 100 μL) in pyrogen-free vials. Control samples contained only LPS dissolved in pyrogen-free water. Solutions were mixed well and incubated at 37° C. for 3 h. Reconstituted LAL (100 μL) was then added and the solution mixed well before incubation at 37° C. for 45 min. Next, reconstituted substrate solution (100 μL) was added to each vial, mixed well and incubated for a further 6 min. Finally, the reaction was terminated by addition of reconstituted stop solution and colour stabilisers. Samples (100 μL) were pipetted into the wells of a 96-well microtitre plate (6 wells per sample) and absorption was read spectrophotometrically at 540 nm. The concentration of LPS producing 50% maximal absorption was taken as the ED50.
To study the effect of amylase on the activity of dextrin-colistin conjugates, dextrin-colistin conjugates (0.5 mg/mL) were first incubated with amylase (100 IU/L) for 6 and 24 h at 37° C. in PBS (pH 8.2). The endotoxin binding activity assays were then followed as described above.

[22] = system: Pseudomonas aeruginosa mucoid strain; experiment: MIC broth microdilution (second mucoid strain, Table 3 r49); assay type: cell-based; details: amylase (100 IU/L) pre-incubation time 0
Experimental: as §1, §2

| Substance | IC50 (cell viability) [1] | MIC [2] | MIC [3] | MIC [4] | MIC [5] | MIC [6] | MIC [7] | MIC [8] | MIC [9] | MIC [10] | MIC [11] | MIC [12] | MIC [13] | MIC [14] | MIC [15] | MIC [16] | MIC [17] | MIC [18] | MIC [19] | % colistin release after 24 h [20] | other results |
| --- | --- | --- | --- | --- | --- | --- | --- | --- | --- | --- | --- | --- | --- | --- | --- | --- | --- | --- | --- | --- | --- |
| colistin | 20 µg/mL | 0.01 | 0.125 | 0.06 | 0.03 | <0.5 | 0.01 | 0.03 | 0.25 | 0.06 | 0.03 | 0.03 | 0.125 | 0.03 | 0.03 | 0.03 | 0.125 | 0.01 | 4 | 100% | inhibition of cleavage of chromogenic substrate by E. coli LPS [21]: able to inhibit; LPS required to trigger Limulus amoebocyte lysate gelation compared to LPS in water ([21]; preincubated 3 h at 37° C.): 20 fold; MIC [22]: 0.008 |
| colistin methanesulfonate [CMS] | 25 µg/mL | 1 | 1 | 2 | 0.5 | 2 | 0.25 | 2 | 4 | 1 | 1 | 1 | 2 | 2 | 2 | 4 | 4 | 1 | 8 | 23.6% | MIC [22]: 0.25 |
